Measurements from patent publication US20260022352A1, “COMPOSITIONS AND METHODS FOR PURIFYING […]” (North Carolina State University, priority 2023, published 2026).
“And” between values parts separate entries of the source, which are not always exact repeats. Equal entries are not always repeated. Where no end group is shown, it is not given here.

Key:
LVV particles [1] = tested on: LVV particles; design: species or system lentivirus
LVV particles [2] = tested on: LVV particles; design: species or system lentivirus; remark: listed apart in the source
LVV particles [3] = assay type: binding, lentivirus

Row | Substance | LVV adsorbed (binding capacity) across cycles (LVV particles [1]) | DBC10% (TU per mL of resin) (LVV particles [2]) | binding capacity (summary) (LVV particles [3]) | DBC10% (vg/mL), real time qPCR (LVV particles [3])
1 | GKEAAFAA | > 10^9 TU/mL | 5.3 · 10^9 TU per mL of resin and 3.9 · 10^9 TU per mL of resin and 4.4 · 10^9 TU per mL of resin and 3.7 · 10^9 TU per mL of resin | – | –
2 | SFVRIGLSD | ~10^9 TU/mL | – | ~6.24·10^9 TU per mL of resin | –
3 | SRAFVGDADRD | ~10^9 TU/mL | – | ~6.24·10^9 TU per mL of resin | –
4 | SRAFVGDADRD-Poros: peptide SRAFVGDADRD (SEQ ID NO: 4) conjugated on aminated Poros resin (also: conjugated to aminated Poros resin, site not given here) | – | – | – | 6.89·10^9 vg/mL
